The values below come from patent US20020151551A1, “Use of growth hormone secretagogues in conjunction with physical exercise cross reference to related application” (priority 2000, published 2002).

Structures are written as SMILES.

In one assay the test system is diet-induced catabolism. Conditions: orally active; cited from earlier work.
For assay [1], the system named is serum insulin-like growth factor-1; quadriceps muscle. Conditions: canines during remobilization; cited from earlier work.
The subject of assay [2] is exercise-induced growth hormone secretion. Nature of the assay: Phase I double-blind, placebo-controlled, multiple dose evaluation: effect on exercise-induced growth hormone secretion (exercise bicycle). The class given is in vivo, human. Conditions: for growth hormone AUC, End of Treatment, Mean: Day 7, calorically restricted obese subjects; for growth hormone AUC, End of Treatment, Mean / growth hormone AUC, Change, Mean: AUC up to 150 minutes post exercise; for growth hormone AUC, Change, Mean: Day 7 versus screening visit. Here is the method: Phase I Double-Blind, Placebo-Controlled, Multiple Dose Evaluation of Test Compound in Calorically Restricted, Obese Men and Women
A total of 48 obese subjects, without significant other medical problems and a negative exercise tolerance test, were recruited for this study and placed on a caloric-restricted diet. Subjects had been randomized to either placebo, 3 mg po tid, 6 mg po tid or 10 mg po qam of the test compound, 2-amino-N-[2-(3a-(R)-benzyl-2-methyl-3-oxo-2,3,3a,4,6,7-hexahydro-pyrazolo[4,3-c]pyridin-5-yl)-1-(R)-benzyloxymethyl-2-oxo-ethyl]-isobutyramide, L-tartrate for a total of seven days.
One of the objectives of this study was to examine the effect of the test compound on exercise-induced growth hormone secretion. The testing was conducted on an exercise bicycle.
One of the efficacy measures of this study was the area under the growth hormone secretory response curve over time (AUC). The above table summarizes the growth hormone AUC values at the screening visit (“Before Treatment”) and at Day 7 (“End of Treatment”) for subjects, who completed exercise at both visits. Also, the AUC values for these subjects were calculated for up to 150 minutes post exercise. The “p-value” in the above table, which is associated with each active treatment group, is derived from comparing each active treatment group with the placebo group, using the two-sample Wilcoxon test.

Consider `CC(C)(N)C(=O)N[C@H](COCc1ccccc1)C(=O)N1CCC2(CC1)CN(S(C)(=O)=O)c1ccccc12` [MK-677], for which, in the assay on diet-induced catabolism, the diet-induced catabolism result is given as “reverses diet-induced catabolism”. For the same molecule, in assay [1], the “serum insulin-like growth factor-1 levels” value was “elevated levels of serum insulin-like growth factor-1”; the “size and strength of the quadriceps muscle” value was “increased the size and strength of the quadriceps muscle”.
On to `CN1N=C2CCN(C(=O)[C@@H](COCc3ccccc3)NC(=O)C(C)(C)N)C[C@@]2(Cc2ccccc2)C1=O.O=C(O)C(O)C(O)C(=O)O` [test compound, 2-amino-N-[2-(3a-(R)-benzyl-2-methyl-3-oxo-2,3,3a,4,6,7-hexahydro-pyrazolo[4,3-c]pyridin-5-yl)-1-(R)-benzyloxymethyl-2-oxo-ethyl]-isobutyramide, L-tartrate], for which the “growth hormone AUC, End of Treatment, Mean” value in assay [2] (3 mg p.o. tid for seven days) was 384; in assay [2] (6 mg p.o. tid for seven days), 395; in assay [2] (10 mg p.o. qam for seven days), 927. Further, the “growth hormone AUC, Change, Mean” value in assay [2] (3 mg p.o. tid for seven days) turned out to be 298; in assay [2] (6 mg p.o. tid for seven days), 250; in assay [2] (10 mg p.o. qam for seven days), 684. In addition, the “effect on exercise-induced growth hormone secretion” value in assay [2] (overall finding of the study, versus placebo) was “augmented exercise-induced growth hormone secretion”.
